In PMC4121215, “Cytotoxic Constituents from the Rhizomes of Curcuma zedoaria” (The Scientific World Journal, 2014):
≈ marks a conversion by molar mass, not a printed value. Entries after “also recorded” stand apart in the source; their conditions may differ.

Columns and labels:
[1] = system: HT-29 (colon cancer); assay: MTT cytotoxicity assay, HT-29; assay type: cell-based; details: for IC50: Homo sapiens, HT-29, MTT, 72 h, mean ± SD of three replicates; for IC50 / SI (selectivity index) HT-29: isolated compounds; for antiproliferative/cytotoxic activity against HT-29 (in words): MTT assay; for SI (selectivity index) HT-29: IC50 HUVEC / IC50 HT-29
Protocol: (§1) The human cell lines MCF-7 (breast cancer), Ca Ski (cervical cancer), and HT-29 (colon cancer) were cultured as monolayer in RPMI 1640 growth media. HUVEC (human umbilical vein endothelial cells) and PC-3 (prostate cancer) cells were cultured in DMEM. All cells were purchased from the American Tissue Culture Collection (ATCC, USA) except for human umbilical vein endothelial cells (HUVEC) which were obtained from ScienCell Research Laboratories (Carlsbad, CA). All the media were supplemented with 10% v/v foetal bovine serum (FBS), 100 μg/mL penicillin/streptomycin, and 50 μg/mL amphotericin B. The cells were cultured in a 5% CO2 incubator at 37°C.
(§2) Cell viability was investigated using 3-(4, 5-dimethylthiazol-2-yl)-2, 5-diphenyltetrazolium bromide (MTT) assay. Cells were detached from the […] tissue culture flask when it achieved 80% confluency. The detached cells were pellet by centrifugation (1,000 rpm; 5 minutes). Cells (3.0 × 10^4 cells/mL) were seeded onto a 96-well microtiter plate (Nunc). The cells were incubated at 37°C CO2 incubator for 24 h to give adherent cells. The test compounds (1–100 μg/mL) were added onto the 96-well microtiter plate containing adherent cells. The untreated cells were incubated in 10% media containing 0.5% DMSO (without addition of any test compounds/extracts). This mixture was regarded as the negative control whereas doxorubicin as the positive control. The plates were incubated for 72 h at 37°C in a 5% CO2 incubator. After 72 h, the media were removed and 100 μL of fresh medium and 20 μL of MTT (Sigma, filter sterile, 5 mg/mL) were added to each well and further incubated for 4 hours (37°C) after which the media were substituted with 150 μL DMSO. The 96-well microtiter plates were then agitated at room temperature onto an incubator shaker to dissolve the formazan crystals. The absorbance (A) of the content of the plates was measured at 540 nm using a microplate reader. The percentage of inhibition of each test sample was calculated according to the following formula: Percentage of inhibition (%) = (A control − A sample)/A control × 100%. The average of three replicates was then obtained. The IC50 for each extract was extrapolated from the graphs of the percentage inhibition versus concentration of test agents. Cytotoxicity of each test agent is expressed as IC50 value. The IC50 value is the concentration of test agents that cause 50% inhibition or cell death, averaged from the three experiments. The selectivity index (SI) was also calculated as described by using the ratio between IC50 of the extract or compounds on normal cell lines (HUVEC) and IC50 of the tested extract or compounds on cancerous cell lines. Selectivity index (SI) values equal or greater than three were considered to have a high selectivity towards cancerous cells. An SI value denotes the selectivity of the sample to the tested cell lines.

[2] = system: HUVEC (human umbilical vein endothelial cells); assay: cells; assay type: cell-based; details: for IC50: Homo sapiens, HUVEC, isolated compounds, MTT, 72 h, normal cells; for toxicity towards normal cells HUVEC (in words): MTT assay
Protocol: as §1, §2

[3] = system: MCF-7 (breast cancer); assay: cells; assay type: cell-based; details: for IC50: Homo sapiens, MCF7, MTT, 72 h, mean ± SD of three replicates; for IC50 / SI (selectivity index) MCF-7: isolated compounds; for SI (selectivity index) MCF-7: IC50 HUVEC / IC50 MCF-7; for antiproliferative/cytotoxic activity against MCF-7 (in words): MTT assay
Protocol: as §1, §2

[4] = system: Ca Ski (cervical cancer); assay: cells; assay type: cell-based; details: for IC50: Homo sapiens, Ca-Ski, MTT, 72 h, mean ± SD of three replicates; for IC50 / SI (selectivity index) Ca Ski: isolated compounds; for SI (selectivity index) Ca Ski: IC50 HUVEC / IC50 Ca Ski
Protocol: as §1, §2

[5] = set-up: method as in PMID 19043244; details: isolated from the rhizomes of Curcuma zedoaria; cited from earlier work
[6] = system: PC-3 (prostate cancer); assay: MTT cytotoxicity assay, PC-3; assay type: cell-based; details: for IC50: Homo sapiens, MTT, 72 h, mean ± SD of three replicates; for IC50 / SI (selectivity index) PC-3: isolated compounds; for antiproliferative/cytotoxic activity against PC-3 (in words): MTT assay; for SI (selectivity index) PC-3: IC50 HUVEC / IC50 PC-3
Protocol: as §1, §2

[7] = system: P450; set-up: method as in PMID 20148399; details: time- and NADPH-dependent inhibitions; cited from earlier work
[8] = system: MCF-7 cells; assay: Phase contrast microscopy of treated MCF-7 cells; assay type: cell-based, human; details: 48 h; 12.5 and 25 µg/mL; inverted phase contrast microscope 400x
Protocol: Briefly, MCF-7 cells (5 × 10^5) were grown in a tissue culture dishes (60 mm) for overnight. Then, the cells were treated with curcumenone (3) and curcumenol (5) at a concentration of 12.5 and 25 μg/mL, respectively. After 48 hours, cells were gently rinsed with PBS. The observation of morphological changes of apoptotic MCF-7 cells after treatment with the two bioactive compounds was viewed using an inverted phase contrast microscope (Leica DMI 3000B, Germany) at 400x magnification according to the method.

[9] = system: MCF-7 cells; assay: Hoechst 33342/PI double staining, fluorescence microscopy; assay type: cell-based, human; details: 48 h, 12.5 and 25 μg/mL
Protocol: The morphological features of MCF-7 cells upon treatment by the test compounds also observed by double staining of Hoechst 33342/PI assay using the inverted fluorescence microscope (Leica, DM16000B). Briefly, 5 × 10^5 cells were grown overnight and treated with 12.5 and 25 μg/mL of curcumenone (3) and curcumenol (5). After treatment of cells with the test compounds for 48 hours, both floating and adherent cells were collected by centrifugation and washed once with cold PBS. Then, Hoechst 33342 solutions (10 μg/mL) were added and incubated at 37°C for 7 minutes. The cells were then stained with PI (2.5 μg/mL) and further incubated in the dark for 15 minutes. Cell suspension (100 μL) was mounted onto glass microscope slides and observed under fluorescence microscope using UV/488 dual excitation (460 nm emission of Hoechst 33342, 575 nm emission of PI). Approximately a total of 200 target cells were calculated and the morphological characteristics of the nuclei were analyzed for quantification of apoptosis and necrosis. The percentage of apoptotic, necrotic, and dead cells was determined according to the formula described by.

[10] = set-up: method as in PMID 9871681; details: cited from earlier work
[11] = set-up: method as in PMID 23160092; details: cited from earlier work
[12] = system: liver alcohol dehydrogenase; set-up: method as in PMID 23160092; details: cited from earlier work

Compound: C/C1=C\CC[C@@]2(C)O[C@@H]2CC(C)(C)/C=C/C1=O [Compound 8, zerumbone epoxide]
- IC50 [1]: 13.7 ± 2.7 µg/mL (≈ 58.5 µM)
- antiproliferative/cytotoxic activity against HT-29 (in words) [1]: good cytotoxic effect
- SI (selectivity index) HT-29 [1]: 1.0
- IC50 [2]: 14.2 ± 1.1 µg/mL (≈ 60.6 µM)
- toxicity towards normal cells HUVEC (in words) [2]: slight toxicity
- IC50 [3]: 24.1 ± 0.1 µg/mL (≈ 103 µM)
- SI (selectivity index) MCF-7 [3]: 0.6
- IC50 [4]: 34.5 ± 0.6 µg/mL (≈ 147 µM)
- SI (selectivity index) Ca Ski [4]: 0.4
- cytotoxic effects [5]: possessed cytotoxic effects
- IC50 [6]: 10.8 ± 1.9 µg/mL (≈ 46.1 µM)
- antiproliferative/cytotoxic activity against PC-3 (in words) [6]: good cytotoxic effect
- SI (selectivity index) PC-3 [6]: 1.3

Compound: CC1=C[C@]2(O)O[C@@]3(CC2=C(C)C)[C@@H](C)CC[C@@H]13 [Compound 5, curcumenol]
- mechanism-based P450 inhibition [7]: not a mechanism-based inhibitor
- morphological changes of MCF-7 cells [8]: cell shrinkage, loss of contact with adjacent cells, and decrease in cell numbers
- IC50 [1]: 24.8 ± 2.7 µg/mL (≈ 106 µM)
- antiproliferative/cytotoxic activity against HT-29 (in words) [1]: moderate inhibitory activity
- SI (selectivity index) HT-29 [1]: 1.0
- IC50 [2]: 25.9 ± 1.4 µg/mL (≈ 111 µM)
- toxicity towards normal cells HUVEC (in words) [2]: low toxicity
- IC50 [3]: 9.3 ± 0.3 µg/mL (≈ 39.7 µM)
- antiproliferative/cytotoxic activity against MCF-7 (in words) [3]: strong antiproliferative activity
- SI (selectivity index) MCF-7 [3]: 2.8
- IC50 [4]: 18.5 ± 1 µg/mL (≈ 78.9 µM)
- SI (selectivity index) Ca Ski [4]: 1.4
- apoptosis induction [9]: induction of apoptotic death occurred; also recorded: better inducing apoptosis capacity in comparison to curcumenone (3)
- IC50 [6]: 17.3 ± 1.2 µg/mL (≈ 73.8 µM)
- antiproliferative/cytotoxic activity against PC-3 (in words) [6]: moderate inhibitory activity
- SI (selectivity index) PC-3 [6]: 1.5

Compound: CC(=O)CC[C@@H]1[C@H]2CC(=C(C)C)C(=O)C[C@@]12C [Compound 3, curcumenone]
- morphological changes of MCF-7 cells [8]: cell shrinkage, loss of contact with adjacent cells, and decrease in cell numbers
- IC50 [1]: 43.3 ± 6.2 µg/mL (≈ 185 µM)
- SI (selectivity index) HT-29 [1]: 1.2
- IC50 [2]: 50 ± 8.6 µg/mL (≈ 213 µM)
- toxicity towards normal cells HUVEC (in words) [2]: slight toxicity
- toxicity towards normal cells HUVEC (in words) ([2]; listed as curcumenone): low toxicity
- IC50 [3]: 8.3 ± 1 µg/mL (≈ 35.4 µM)
- antiproliferative/cytotoxic activity against MCF-7 (in words) [3]: strong antiproliferative activity
- SI (selectivity index) MCF-7 [3]: 6.0
- IC50 [4]: > 100 µg/mL
- antiproliferative/cytotoxic activity against Ca Ski (in words) ([4]; MTT assay): did not show any antiproliferative activity
- SI (selectivity index) Ca Ski [4]: 0.5
- effect on D-galactosamine/lipopolysaccharide-induced acute liver injury [10]: effective protective effect
- apoptosis induction [9]: induction of apoptotic death occurred
- effect on alcohol-treated mice [11]: protective effect
- IC50 [6]: 39.8 ± 4.2 µg/mL (≈ 170 µM)
- SI (selectivity index) PC-3 [6]: 1.3
- effect on liver alcohol dehydrogenase activity [12]: acceleration of liver alcohol dehydrogenase activity
